What was measured:
[1] = reversed-phase LC retention time (C18, 15 min MeOH gradient); higher = more hydrophobic / later elution
[2] = collision cross section (TIMS, N2 drift gas) of the primary ion; higher = larger gas-phase ion size
[3] = ionization mode: ESI+, ion species: [M+H]+
[4] = ionization mode: ESI-, ion species: [M-H]-
[5] = ionization mode: ESI+, ion species: [M]+

| SMILES | reversed-phase LC retention time [1, 3] [min] | collision cross section [2, 3] [Å²] | reversed-phase LC retention time [1, 4] [min] | collision cross section [2, 4] [Å²] | reversed-phase LC retention time [1, 5] [min] | collision cross section [2, 5] [Å²] |
| --- | --- | --- | --- | --- | --- | --- |
| CCCCCCCCCCCCN(C)C [N,N-Dimethyldodecylamine] | 15.4 | 169.68 |  |  |  |  |
| CC(C(=O)O)c1cccc(C(=O)c2ccccc2)c1 (stereo unspecified) [Ketoprofen] | 13.5 | 158.88 |  |  |  |  |
| C[C@]12CC[C@@H]3c4ccc(O)cc4CC[C@H]3[C@@H]1CC[C@@H]2O [17-beta-Estradiol] |  |  | 14.5 | 173.91 |  |  |
| CCNc1nc(Cl)nc(NCC)n1 [Simazine] | 11.5 | 142.98 |  |  |  |  |
| CN1CCN(C)C1=O [1,3-Dimethyl-2-imidazolidinone] | 6.07 | 116.95 |  |  |  |  |
| COCC(C)N(C(=O)CS(=O)(=O)O)c1c(C)csc1C (stereo unspecified) [Dimethenamid ESA] | 10.9 | 166.05 | 10.9 | 168.76 |  |  |
| CN(C1CCCCC1)C1CCCCC1 [N-Methyl-dicyclohexylamine] | 9.45 | 148.45 |  |  |  |  |
| C[C@H](CCC(=O)O)[C@H]1CC[C@H]2[C@@H]3CC[C@@H]4C[C@H](O)CC[C@]4(C)[C@H]3C[C@H](O)[C@]12C [Deoxycholic acid] |  |  | 15.8 | 203 |  |  |
| Nc1ccc(/C=C/c2ccc(N)cc2S(=O)(=O)O)c(S(=O)(=O)O)c1 [4,4'-Diaminostilbene-2,2'-disulfonic acid] |  |  | 0.97 | 178.47 |  |  |
| CCn1cc(C(=O)O)c(=O)c2cc(F)c(N3CCNCC3)cc21 [Norfloxacin] | 8.08 | 173.95 |  |  |  |  |
| O=C(CC(C(=O)OC1CCCCC1)S(=O)(=O)O)OC1CCCCC1 (stereo unspecified) [Dicyclohexyl sulfosuccinate] | 14.2 | 201.58 | 14.2 | 189.02 |  |  |
| O=C(NC(CO)C(O)c1ccc([N+](=O)[O-])cc1)C(Cl)Cl (stereo unspecified) [Chloramphenicol] |  |  | 9.83 | 165.75 |  |  |
| O=C1C=C(N(Cc2ccc(Cl)nc2)CC(F)F)CO1 [Flupyradifurone] | 9.35 | 164.36 | 9.46 | 163.3 |  |  |
| CCCSc1ccc2[nH]c(NC(=O)OC)nc2c1 [Albendazole] | 13.1 | 165.21 | 14.2 | 165.62 |  |  |
| CC(C)(C)c1ccc(CSc2cnn(C(C)(C)C)c(=O)c2Cl)cc1 [Pyridaben] | 17.9 | 193.46 |  |  |  |  |
| CCCCCOC(=O)c1ccccc1C(=O)OCCCCC [Di-n-pentylphthalate] | 17.4 | 182.77 |  |  |  |  |
| CCCCC(C#N)(Cn1cncn1)c1ccc(Cl)cc1 (stereo unspecified) [Myclobutanil] | 14.5 | 175 |  |  |  |  |
| CC(C)(C)C(O)(CCc1ccc(Cl)cc1)Cn1cncn1 (stereo unspecified) [Tebuconazole] | 15.5 | 168.02 |  |  |  |  |
| CC(O)(CS(=O)(=O)c1ccc(F)cc1)C(=O)Nc1ccc(C#N)c(C(F)(F)F)c1 (stereo unspecified) [Bicalutamide] | 13.4 | 205.43 | 13.7 | 184.69 |  |  |
| COc1cc2c(c3oc(=O)c4c(c13)CCC4=O)C1C=COC1O2 (stereo unspecified) [Aflatoxin B1] | 11.4 | 165.23 |  |  |  |  |
| CC(C)C(=O)c1ccccc1 [Isobutyrophenone] | 17.1 | 128.32 |  |  |  |  |

| SMILES | reversed-phase LC retention time [1, 3] [min] | collision cross section [2, 3] [Å²] | reversed-phase LC retention time [1, 4] [min] | collision cross section [2, 4] [Å²] | reversed-phase LC retention time [1, 5] [min] | collision cross section [2, 5] [Å²] |
| --- | --- | --- | --- | --- | --- | --- |
| C[C@H]1C[C@H]2[C@@H]3CCC4=CC(=O)C=C[C@]4(C)[C@@]3(Cl)[C@@H](O)C[C@]2(C)[C@@]1(O)C(=O)CO [Beclomethasone] | 13.3 | 192.43 | 13.6 | 194.28 |  |  |
| O=c1[nH]c2ccccc2s1 [2-Hydroxybenzothiazole] | 10.5 | 126.56 | 10.6 | 122.14 |  |  |
| Nc1ccc(Cc2ccc(N)c(Cl)c2)cc1Cl [2,2'-dichloro-4,4'-methylenedianiline] | 13.8 | 173.31 |  |  |  |  |
| CCNc1ccc2c(C)cc(=O)oc2c1 [7-(Ethylamino)-4-methylcoumarin] | 12.2 | 142.36 |  |  |  |  |
| CCCOc1nn(C(=O)NS(=O)(=O)c2ccccc2C(=O)OC)c(=O)n1C [Propoxycarbazone] | 11.7 | 199.32 | 9.86 | 193.45 |  |  |
| C[C@@H](CCC(=O)O)C1CCC2C3C(=O)CC4C[C@H](O)CC[C@]4(C)C3CC[C@@]21C (stereo partly specified) [7-Oxolithocholic acid] | 15.8 | 204.58 | 14.3 | 208.67 |  |  |
| Oc1c(Cl)cc(-c2ccc(Cl)cc2)cc1Cl [4-Hydroxy-3,4',5-trichlorobiphenyl] |  |  | 15.5 | 154.17 |  |  |
| CCN1CCCC1=O [1-Ethyl-2-pyrrolidinone] | 6.97 | 120.11 |  |  |  |  |
| Cc1cc(C)nc(NS(=O)(=O)c2ccc(N)cc2)n1 [Sulfamethazine] | 7.95 | 163.66 | 7.46 | 165.06 |  |  |
| CC(=O)OCC(=O)[C@@]1(O)CC[C@H]2[C@@H]3CCC4=CC(=O)CC[C@]4(C)[C@H]3[C@@H](O)C[C@@]21C [Hydrocortisonacetate] |  |  | 13.7 | 198.1 |  |  |
| Cc1cnc2c(C(=O)O)c(Cl)ccc2c1 [Quinmerac] | 9.27 | 139.87 |  |  |  |  |
| CCN(CC)C(=O)c1cccc(C)c1 [DEET] | 13 | 142.86 |  |  |  |  |
| O=C(O)C(F)(F)C(F)(F)C(F)(F)C(F)(F)C(F)(F)C(F)(F)F [Perfluoroheptanoic acid] |  |  | 13.8 | 146.98 |  |  |
| CC(C)C1C2CCC1c1c(NC(=O)c3cn(C)nc3C(F)F)cccc12 (stereo unspecified) [Isopyrazam] | 16.2 | 185.35 | 16.6 | 191.1 |  |  |
| C=C1C[C@@H]2[C@H](CC[C@]3(C)C(=O)CC[C@@H]23)[C@@]2(C)C=CC(=O)C=C12 [Exemestane] | 13.9 | 173.31 |  |  |  |  |
| NC(=O)Nc1ccc(Cl)c(Cl)c1 [3,4-Dichlorophenylurea] | 12.2 | 146.21 | 12.4 | 134.15 |  |  |
| CCNc1nc(NCC)nc(SC)n1 [Simetryn] | 11.6 | 149.02 |  |  |  |  |
| COCC(=O)Nc1c(I)c(C(=O)NCC(O)CO)c(I)c(C(=O)N(C)CC(O)CO)c1I (stereo unspecified) [Iopromide] | 6.66 | 215.51 | 6.74 | 212.29 |  |  |
| O=P1(N(CCCl)CCCl)NCCCO1 (stereo unspecified) [Cyclophosphamide] | 10.5 | 147.43 |  |  |  |  |
| COc1c(C)c2c(c(O)c1C/C=C(\C)CCC(=O)O)C(=O)OC2 [Mycophenolic acid] | 13.4 | 169.04 | 11.3 | 175.76 |  |  |
| O=c1[nH]sc2ccccc12 [1,2-Benzisothiazolinone] | 8.77 | 125.68 | 10.6 | 122.13 |  |  |

| SMILES | reversed-phase LC retention time [1, 3] [min] | collision cross section [2, 3] [Å²] | reversed-phase LC retention time [1, 4] [min] | collision cross section [2, 4] [Å²] | reversed-phase LC retention time [1, 5] [min] | collision cross section [2, 5] [Å²] |
| --- | --- | --- | --- | --- | --- | --- |
| O=P(O)(OCCC(F)(F)C(F)(F)C(F)(F)C(F)(F)C(F)(F)C(F)(F)F)OCCC(F)(F)C(F)(F)C(F)(F)C(F)(F)C(F)(F)C(F)(F)F [6:2 Fluorotelomer phosphate diester] |  |  | 17.6 | 232.73 |  |  |
| C[C@]12CCC(=O)C=C1CC[C@@H]1[C@@H]2C(=O)C[C@@]2(C)[C@H]1CC[C@]2(O)C(=O)CO [Cortisone] | 16.9 | 181.22 |  |  |  |  |
| CN(C)CCOC(c1ccccc1)c1ccccc1 [Diphenhydramine] | 11.6 | 162.95 |  |  |  |  |
| CCCCCCCCCCCCCCCC[N+](C)(C)C [Hexadecyltrimethylammonium] |  |  |  |  | 17.4 | 196.39 |
| CN1COCN(Cc2cnc(Cl)s2)/C1=N/[N+](=O)[O-] [Thiamethoxam] | 7.66 | 159.96 |  |  |  |  |
| O=P1(NCCCl)OCCCN1CCCl (stereo unspecified) [Ifosfamide] | 10.2 | 148.36 |  |  |  |  |
| CCC(=O)[C@@]1(C)[C@H](C)C[C@H]2[C@@H]3CCC4=CC(=O)C=C[C@]4(C)[C@H]3[C@@H](O)C[C@@]21C [Rimexolone] | 16 | 192.28 | 16.4 | 191.62 |  |  |
| NC1=NCCN1Cc1ccc(Cl)nc1 [Imidacloprid-guanidine] | 6.21 | 148.89 |  |  |  |  |
| CNS(=O)(=O)c1ccccc1 [N-Methylbenzenesulfonamide] |  |  | 8.4 | 134.48 |  |  |
| CCOC(=O)C1=C(C)NC(C)=C(C(=O)OC)C1c1cccc([N+](=O)[O-])c1 (stereo unspecified) [Nitrendipin] | 14.4 | 184.47 | 14.7 | 183.62 |  |  |
| CC1COC(Cn2cncn2)(c2ccc(Oc3ccc(Cl)cc3)cc2Cl)O1 (stereo unspecified) [Difenoconazole] | 16.1 | 202.11 |  |  |  |  |
| Fc1ccc(Oc2ccnc3cc(Cl)cc(Cl)c23)cc1 [Quinoxyfen] | 17.1 | 164.99 |  |  |  |  |
| CCCCc1nc(Cl)c(CO)n1Cc1ccc(-c2ccccc2-c2nn[nH]n2)cc1 [Losartan] | 13.3 | 201.04 | 13 | 204 |  |  |
| CNCCCN1c2ccccc2CCc2ccccc21 [Desipramine] | 12.9 | 164.14 |  |  |  |  |
| CCC[C@H]1CCCCN1 [Coniine] | 6.79 | 129.06 |  |  |  |  |
| COC(=O)Nc1nc2ccc(C(=O)c3ccccc3)cc2[nH]1 [Mebendazole] | 12.4 | 175.29 | 13 | 173.87 |  |  |
| CCCCCCCCCCCCCCOS(=O)(=O)O [Tetradecylsulfate] |  |  | 17.2 | 175.12 |  |  |
| COCC(C)N(C(=O)C(=O)O)c1c(C)csc1C (stereo unspecified) [Dimethenamid OA] | 11.3 | 155.28 | 10.5 | 161.26 |  |  |
| COc1cc2ccc(=O)oc2c(OC)c1OC [Dimethylfraxetin] | 10.6 | 147.68 |  |  |  |  |
| C[C@]12CCC(=O)C=C1CC[C@@H]1[C@@H]2[C@@H](O)C[C@]2(C=O)[C@@H](C(=O)CO)CC[C@@H]12 [Aldosterone] | 16.5 | 204.03 | 11.9 | 182.17 |  |  |

Source: the supplement of paper PMC12613149
